Measured values: ChEMBL document CHEMBL5149985, “Discovery of cytotoxic natural products from Red Sea sponges: Structure and synthesis” (Eur J Med Chem, 2021)

Key:
MDA-MB-231 [1] = assay: Anticancer activity against human MDA-MB-231 assessed as inhibition of cell growth incubated for 48 hrs by SRB assay; type: functional, cell-based; details: MDA-MB-231, 48 h
MDA-MB-231 [2] = assay: Anticancer activity against human MDA-MB-231 cells assessed as inhibition of cell growth; type: functional, cell-based

Question: With `COC1=C(Br)[C@@H]2OC(=O)C[C@]2(O)C=C1Br` as the compound, how does the IC50 (MDA-MB-231 [1]) read?
Answer: 18 µM

Question: What about the IC50 (MDA-MB-231 [2]) of the same compound?
Answer: 18 µM
